Experimental data: US8809341B2, “2,4-pyrimidinediamine compounds and uses as anti-proliferative agents” (Rigel Pharmaceuticals, Inc., priority 2003, dated 2014)

Legend:
H1299 cells = test: in vitro antiproliferation assay, H1299 (lung); assay type: cell-based
Procedure: (§1) The IC50 values of various compounds against a various different tumor cell lines were determined using standard in vitro antiproliferation assays. The tumor cell lines tested were as follows: A549 (lung); H1299 (lung), ACHN (kidney/p53 wt), CAKI (renal cell carcinoma), NCI-H460 (lung); HCT116 (colon/p53w0; HELA (cervix/p53 wt), HUH7 (liver/p53 wt), HUVEC (primary endothelial), LNCAP (prostate), HT-29 (colon); MCF-7 (breast); MCF-7 (breast/ER positive), MDA MB435S (breast); MDA MB231 (breast/ER negative), DU145 (prostate); BxPC-3 (pancreatic); SKOV-3 (ovarian); HepG2 (hepatic), NDHF primary normal human dermal fibroblast), SKMEL28 (breast/p53mut), SKMEL5 (breast/p53 wt), U20S (bone) and PC3 (prostate). […] A blank indicates the specified compound was not tested against the specified cell line.

A549 cells = test: in vitro antiproliferation assay, A549 (lung); assay type: cell-based
Procedure: as §1

[1] = IC50 class against H1299 (lung) tumor cells
[2] = IC50 class against A549 (lung) tumor cells
[3] = Homo sapiens, NCI-H1299, IC50 class against H1299 (lung) tumor cells
[4] = Homo sapiens, IC50 class against A549 (lung) tumor cells
[5] = in vitro antiproliferation, H1299 (lung) cells, Table 4, compounds with no designated stereochemistry tested as racemate
[6] = in vitro antiproliferation, A549 (lung) cells, Table 4, compounds with no designated stereochemistry tested as racemate

| Compound | IC50 (H1299 cells; [1]) [µM] | IC50 (A549 cells; [2]) [µM] | also measured |
| --- | --- | --- | --- |
| CCN1CCN(c2ccc(Nc3ncc(F)c(NC4CCCC4)n3)cn2)CC1 [compound 168] | ≤ 20 | ≤ 20 |  |
| CCN1CCN(c2ccc(Nc3ncc(F)c(NC4CCCCC4)n3)cn2)CC1 [compound 169] | ≤ 20 | ≤ 20 |  |
| Cc1cc(Nc2ncc(F)c(NC3CCC3)n2)cnc1N1CCN(C)CC1 [compound 171] | ≤ 20 | ≤ 20 |  |
| Cc1cc(Nc2ncc(F)c(NC3CCCC3)n2)cnc1N1CCN(C)CC1 [compound 172] | ≤ 20 | ≤ 20 |  |
| Cc1cc(Nc2ncc(F)c(NC3CCCCC3)n2)cnc1N1CCN(C)CC1 [compound 173] | ≤ 20 | ≤ 20 |  |
| CN1CCN(c2ccc(Nc3ncc(F)c(NC4CCC4)n3)cc2CO)CC1 [compound 174] | ≤ 20 | ≤ 20 |  |
| NC(=O)c1ccc(Nc2ncc(F)c(NC3CCCC3)n2)cc1 [compound 175] | > 20 | ≤ 20 |  |
| CCN(CC)CCNC(=O)c1ccc(Nc2ncc(F)c(NC3CCCC3)n2)cc1 [compound 176] | ≤ 20 | ≤ 20 |  |
| COC(=O)CNC(=O)c1ccc(Nc2ncc(F)c(NC3CCCC3)n2)cc1 [compound 177] | ≤ 20 | ≤ 20 |  |
| CN1CCN(c2ccc(Nc3ncc(F)c(NC4CC(C)(C)N(C)C(C)(C)C4)n3)cc2)CC1 [compound 178] | ≤ 20 | ≤ 20 |  |
| CN1CCN(c2cccc(Nc3ncc(F)c(NC4CC(C)(C)N(C)C(C)(C)C4)n3)c2)CC1 [compound 179] | ≤ 20 | ≤ 20 |  |
| CN1CCN(c2ccc(Nc3ncc(F)c(NC4CC(C)(C)N(C)C(C)(C)C4)n3)cc2Cl)CC1 [compound 180] | ≤ 20 | ≤ 20 |  |
| Cc1cc(Nc2ncc(F)c(NC3CC(C)(C)N(C)C(C)(C)C3)n2)ccc1N1CCN(C)CC1 [compound 181] | ≤ 20 | ≤ 20 |  |
| CN1CCN(c2ccc(Nc3ncc(F)c(NC4CC(C)(C)N(C)C(C)(C)C4)n3)cc2C(F)(F)F)CC1 [compound 182] | ≤ 20 | ≤ 20 |  |
| CCN1CCN(c2ccc(Nc3ncc(F)c(NC4CC(C)(C)N(C)C(C)(C)C4)n3)cn2)CC1 [compound 183] | ≤ 20 | ≤ 20 |  |
| Cc1cc(Nc2ncc(F)c(NC3CC(C)(C)N(C)C(C)(C)C3)n2)cnc1N1CCN(C)CC1 [compound 184] | ≤ 20 | ≤ 20 |  |
| CCOC(=O)N1CCC(Nc2nc(Nc3ccc(N4CCN(C)CC4)cc3)ncc2F)CC1 [compound 185] | ≤ 20 | ≤ 20 |  |
| CCOC(=O)N1CCC(Nc2nc(Nc3cccc(N4CCN(C)CC4)c3)ncc2F)CC1 [compound 186] | ≤ 20 | ≤ 20 |  |
| CCOC(=O)N1CCC(Nc2nc(Nc3ccc(N4CCN(C)CC4)c(Cl)c3)ncc2F)CC1 [compound 187] | ≤ 20 | ≤ 20 |  |
| CCOC(=O)N1CCC(Nc2nc(Nc3ccc(N4CCN(C)CC4)c(C)c3)ncc2F)CC1 [compound 188] | ≤ 20 | ≤ 20 |  |

| Compound | IC50 (H1299 cells; [1]) [µM] | IC50 (A549 cells; [2]) [µM] | also measured |
| --- | --- | --- | --- |
| CCOC(=O)N1CCC(Nc2nc(Nc3ccc(N4CCN(C)CC4)c(C(F)(F)F)c3)ncc2F)CC1 [compound 189] | ≤ 20 | ≤ 20 |  |
| CCOC(=O)N1CCC(Nc2nc(Nc3ccc(N4CCN(C)CC4)nc3)ncc2F)CC1 [compound 190] | ≤ 20 | ≤ 20 |  |
| CC(=O)N1CCN(c2cccc(Nc3ncc(F)c(Nc4cc(C(C)(C)C)[nH]n4)n3)c2)CC1 [compound 200] |  |  | IC50 (H1299 cells; [3]): ≤ 20 µM; IC50 (A549 cells; [4]): ≤ 20 µM |
| CCOC(=O)N1CCN(c2cccc(Nc3ncc(F)c(Nc4cc(C(C)(C)C)[nH]n4)n3)c2)CC1 [compound 201] |  |  | IC50 (H1299 cells; [3]): ≤ 20 µM; IC50 (A549 cells; [4]): ≤ 20 µM |
| CC(=O)N1CCN(c2ccc(Nc3ncc(F)c(Nc4cc(C(C)(C)C)[nH]n4)n3)cc2)CC1 [compound 202] |  |  | IC50 (H1299 cells; [3]): ≤ 20 µM; IC50 (A549 cells; [4]): ≤ 20 µM |
| COC(=O)N1CCN(c2ccc(Nc3ncc(F)c(Nc4cc(C(C)(C)C)[nH]n4)n3)cc2)CC1 [compound 203] |  |  | IC50 (H1299 cells; [3]): ≤ 20 µM; IC50 (A549 cells; [4]): ≤ 20 µM |
| CN1CCN(c2ccc(Nc3ncc(F)c(Nc4cc(C(C)(C)C)[nH]n4)n3)cc2)CC1 [compound 204] |  |  | IC50 (H1299 cells; [3]): ≤ 20 µM; IC50 (A549 cells; [4]): ≤ 20 µM |
| CC(=O)N1CCN(c2cccc(Nc3ncc(F)c(Nc4cc(C5CC5)[nH]n4)n3)c2)CC1 [compound 205] |  |  | IC50 (H1299 cells; [3]): ≤ 20 µM; IC50 (A549 cells; [4]): ≤ 20 µM |
| CN1CCN(c2ccc(Nc3ncc(F)c(Nc4cc(C5CC5)[nH]n4)n3)cc2)CC1 [compound 206] |  |  | IC50 (H1299 cells; [3]): ≤ 20 µM; IC50 (A549 cells; [4]): ≤ 20 µM |
| Fc1cnc(Nc2cccc(N3CCOCC3)c2)nc1Nc1cc(C2CC2)[nH]n1 [compound 207] |  |  | IC50 (H1299 cells; [3]): ≤ 20 µM; IC50 (A549 cells; [4]): ≤ 20 µM |
| CCOC(=O)N1CCN(c2ccc(Nc3ncc(F)c(Nc4cc(C5CC5)[nH]n4)n3)cc2)CC1 [compound 209] |  |  | IC50 (H1299 cells; [3]): ≤ 20 µM; IC50 (A549 cells; [4]): ≤ 20 µM |
| Fc1cnc(Nc2ccc(N3CCOCC3)cc2)nc1Nc1cc(C2CC2)[nH]n1 [compound 210] |  |  | IC50 (H1299 cells; [3]): > 20 µM; IC50 (A549 cells; [4]): ≤ 20 µM |
| CN1CCN(c2ccc(Nc3ncc(F)c(Nc4cc(C5CC5)[nH]n4)n3)cc2Cl)CC1 [compound 212] |  |  | IC50 (H1299 cells; [3]): ≤ 20 µM; IC50 (A549 cells; [4]): ≤ 20 µM |
| Cc1cc(Nc2ncc(F)c(Nc3cc(C4CC4)[nH]n3)n2)ccc1N1CCN(C)CC1 [compound 213] |  |  | IC50 (H1299 cells; [3]): ≤ 20 µM; IC50 (A549 cells; [4]): ≤ 20 µM |
| CN1CCN(c2ccc(Nc3ncc(F)c(Nc4cc(C5CC5)[nH]n4)n3)cc2C(F)(F)F)CC1 [compound 214] |  |  | IC50 (H1299 cells; [3]): ≤ 20 µM; IC50 (A549 cells; [4]): ≤ 20 µM |
| Cc1cc(C)cc(Nc2ncc(F)c(Nc3ccc4c(c3)NC(=O)C(C)O4)n2)c1 (stereo not shown) [compound 229] |  |  | IC50 (H1299 cells; [5]): ≤ 20 µM; IC50 (A549 cells; [6]): ≤ 20 µM |
| O=C1COc2ccc(Nc3nc(Nc4cccc(-c5ncco5)c4)ncc3F)cc2N1 [compound 236] |  |  | IC50 (H1299 cells; [5]): ≤ 20 µM; IC50 (A549 cells; [6]): ≤ 20 µM |
| O=C1COc2ccc(Nc3nc(Nc4cccc(-c5cnco5)c4)ncc3F)cc2N1 [compound 239] |  |  | IC50 (H1299 cells; [5]): ≤ 20 µM; IC50 (A549 cells; [6]): > 20 µM |
| C[C@@H]1Oc2ccc(Nc3nc(Nc4cccc(-c5cnco5)c4)ncc3F)cc2NC1=O [compound 240] |  |  | IC50 (H1299 cells; [5]): > 20 µM; IC50 (A549 cells; [6]): ≤ 20 µM |
| CN1C(=O)COc2ccc(Nc3nc(Nc4cccc(O)c4)ncc3F)cc21 [compound 255] |  |  | IC50 (H1299 cells; [5]): ≤ 20 µM; IC50 (A549 cells; [6]): ≤ 20 µM |

Continued, in another order:

| IC50 (H1299 cells; [1]) [µM] | IC50 (A549 cells; [2]) [µM] | Compound | also measured |
| --- | --- | --- | --- |
| ≤ 20 | ≤ 20 | CC(C)Nc1nc(Nc2ccc(N3CCN(C)CC3)cc2)ncc1F [compound 215] |  |
| ≤ 20 | ≤ 20 | CC(C)Nc1nc(Nc2ccc(N3CCN(C)CC3)c(Cl)c2)ncc1F [compound 216] |  |
| ≤ 20 | ≤ 20 | Cc1cc(Nc2ncc(F)c(NC(C)C)n2)ccc1N1CCN(C)CC1 [compound 217] |  |
| ≤ 20 | ≤ 20 | CC(C)Nc1nc(Nc2ccc(N3CCN(C)CC3)c(C(F)(F)F)c2)ncc1F [compound 218] |  |
| ≤ 20 | ≤ 20 | CC(C)Nc1nc(Nc2cccc(N3CCN(C)CC3)c2)ncc1F [compound 219] |  |
| ≤ 20 | ≤ 20 | CN1CCN(c2ccc(Nc3ncc(F)c(NC(C)(C)C)n3)cc2)CC1 [compound 220] |  |
| ≤ 20 | ≤ 20 | CN1CCN(c2cccc(Nc3ncc(F)c(NC(C)(C)C)n3)c2)CC1 [compound 221] |  |
| ≤ 20 | ≤ 20 | CN1CCN(c2ccc(Nc3ncc(F)c(NC(C)(C)C)n3)cc2Cl)CC1 [compound 222] |  |
| ≤ 20 | ≤ 20 | Cc1cc(Nc2ncc(F)c(NC(C)(C)C)n2)ccc1N1CCN(C)CC1 [compound 223] |  |
| ≤ 20 | ≤ 20 | CN1CCN(c2ccc(Nc3ncc(F)c(NC(C)(C)C)n3)cc2C(F)(F)F)CC1 [compound 224] |  |
| ≤ 20 | ≤ 20 | CCN1CCN(c2ccc(Nc3ncc(F)c(NC(C)C)n3)cn2)CC1 [compound 225] |  |
| ≤ 20 | ≤ 20 | CCN1CCN(c2ccc(Nc3ncc(F)c(NC(C)(C)C)n3)cn2)CC1 [compound 226] |  |
| ≤ 20 | ≤ 20 | Cc1cc(Nc2ncc(F)c(NC(C)C)n2)cnc1N1CCN(C)CC1 [compound 227] |  |
